From US20260174739A1 (priority 2022, published 2026)
Where two headings read alike, the source gives them in different places.

Legend:
[1] = Human liver microsome assay (metabolic stability); assay type: in vitro ADME; settings: pH 7.4, human liver microsomes 0.2 mg/mL, 1 μM test drug, NADPH, 37° C.; for half-life at 1 μM: read-out: Half-life (t1/2, min); for CLint scaled at 1 μM: read-out: Intrinsic clearance (Clint, mL/min/kg)
Description: Control and reagent: NADPH, magnesium chloride, testosterone, phosphate buffer, etc. were supplied by Dalian Meilun Biotech Co., Ltd., etc.
Liver microsome: human liver microsomes were supplied by Corning.
Experimental step: the liver microsome incubations were performed in 96-well plates, each incubation system having a volume of 200 μL, in a medium of 0.1 M phosphate buffer (pH 7.4), including liver microsomes at a final concentration of 0.2 mg/mL, 1 μM of the test drug, 3.0 mM MgCl2, 0.01% DMSO, 0.5% acetonitrile, and 2.0 mM NADPH. The incubation system described above without NADPH was pre-incubated at 37° C. for 5 min using a rotary water bath constant temperature oscillator. NADPH was added to initiate the reaction. At 0, 5, 15, 30, and 60 min, 20 μL of the sample was taken out from the incubation system after mixing well and added to 200 μL of acetonitrile containing an internal standard to terminate the reaction. Under the same conditions, 1 μM testosterone was used as a positive control to assess the reliability of the reaction system. For the negative control, phosphate buffer was used instead of NADPH, and all other incubation conditions remained the same. At 60 min, 20 μL of the sample was taken out after mixing well and added to 200 μL of termination solution containing an internal standard to terminate the reaction.
Sample analysis: After treatments such as precipitated protein extraction with an organic solvent, the incubated sample was analyzed using liquid chromatography-tandem mass spectrometry (LC-MS/MS). The concentrations of the test drug or the positive control drug in the sample were semi-quantified. The concentration in the sample was expressed using the ratio of the analyte peak area to the internal standard peak area.
Data processing and analysis: A standard curve of the In residual rate of the drug in the incubation system with respect to the incubation time was plotted by using Excel software, linear regression was performed to obtain a slope k, and the half-life T1/2 (min) and the intrinsic clearance CLint (mL/min/kg) were calculated according to the following formula: […]

[2] = In vivo metabolism (pharmacokinetic) experiment in mice; design: species or system male ICR mice; settings: mouse, male ICR mice; for AUC(0-inf) / Cmax / half-life: oral 10 mg/kg, plasma; for AUC(0-inf): read-out: AUC0-inf(po); for Cmax: read-out: Cmax (po); for half-life: read-out: T1/2 (po) (converted)
Description: Animal: male ICR mice. The animals were randomly assigned to treatment groups and fasted for 12 h prior to dosing.
Drug: the compound of the present disclosure was dissolved in a vehicle (5% DMSO+5% Solutol HS15+90% saline). For intravenous (iv) administration, the dose was 2.5 mg/kg with a dosing volume of 5 mL/kg; for oral (po) administration, the dose was 10 mg/kg with a dosing volume of 10 mL/kg body weight. Sample collection and bioanalysis: blood was collected from the orbit of the mice and added into EP tubes containing heparin sodium at 0.083, 0.25, 0.5, 1, 2, 4, 6, and 8 h (n=3 for each time point). Immediately after blood collection, the mice were euthanized by cervical dislocation, and mouse brains were collected at the corresponding time points. All samples were promptly collected, snap-frozen, and stored at −70° C. for later use. Plasma samples were obtained by centrifugation of whole blood. 10 μL of plasma was mixed with 190 μL of internal standard solution (20 ng/ml in acetonitrile containing 0.1% formic acid). After mixing, the samples were centrifuged at 13000 rpm for 10 min, and 120 μL of the supernatant was separately collected. Depending on the sensitivity of the compound, 0.5-10 μL of the supernatant was taken for drug analysis using the appropriate liquid chromatography-tandem mass spectrometry (LC-MS/MS). Each analyte was calibrated and identified using standards. According to brain tissue: the extract (50% acetonitrile/water) at a ratio of 1 g:8 mL was homogenized for 2 min using five 3 mm magnetic beads in an OMNI Bead Ruptor 24 Elite homogenizer at 3.2 m/s and centrifuged at 4° C. and 3000 g for 3 min. 50 μL of the supernatant was mixed with 200 μL of internal standard solution (20 ng/mL in 80% acetonitrile/water). After mixing, the samples were centrifuged at 13,000 rpm for 10 min, and 120 μL of the supernatant was separately collected. Depending on the sensitivity of the compound, 0.5-10 μL of the supernatant was taken for drug analysis using the appropriate LC-MS/MS method. Each analyte was calibrated and identified using standards.
Data analysis: drug concentrations below the lower limit of quantification (LLOQ) were considered zero. Pharmacokinetic parameters were analyzed using PK Solver with a non-compartmental, bolus injection or extravascular input analysis models. Data points below the LLOQ were excluded to improve the efficacy of t1/2 calculation.

human DAT = human DAT (Homo sapiens, UniProt Q01959); test: DAT transporter inhibitory activity test (neurotransmitter transporter uptake assay kit); assay type: cell-based; settings: DAT stably transfected HEK cells; read-out: DAT (IC50)
human DAT, sequence (Q01959 whole entry): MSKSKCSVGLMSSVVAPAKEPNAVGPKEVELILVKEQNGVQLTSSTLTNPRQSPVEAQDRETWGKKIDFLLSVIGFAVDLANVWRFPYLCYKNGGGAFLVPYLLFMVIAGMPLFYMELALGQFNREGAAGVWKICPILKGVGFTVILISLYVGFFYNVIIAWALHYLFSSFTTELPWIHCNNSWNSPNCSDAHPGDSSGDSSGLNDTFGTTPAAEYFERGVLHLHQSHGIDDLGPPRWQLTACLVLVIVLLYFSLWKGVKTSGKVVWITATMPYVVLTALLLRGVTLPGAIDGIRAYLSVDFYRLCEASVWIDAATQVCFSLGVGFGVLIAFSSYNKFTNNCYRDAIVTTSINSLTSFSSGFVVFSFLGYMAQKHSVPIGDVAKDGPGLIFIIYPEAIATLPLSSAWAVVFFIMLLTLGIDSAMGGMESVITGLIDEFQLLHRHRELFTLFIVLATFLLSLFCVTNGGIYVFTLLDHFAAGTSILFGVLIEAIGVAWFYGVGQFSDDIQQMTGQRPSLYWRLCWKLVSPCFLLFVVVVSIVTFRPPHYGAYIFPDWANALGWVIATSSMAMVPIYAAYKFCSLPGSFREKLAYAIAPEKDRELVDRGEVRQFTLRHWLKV
Description: Transporter inhibition of human DAT and NET expressed in HEK-293 cells was assessed using a neurotransmitter transporter uptake assay kit. The assay was performed as described in the kit instructions, using centanafadine as a positive control. The specific procedures were as follows:
DAT stably transfected culture: The DAT-HEK cell line was cultured in DMEM medium containing 10% fetal bovine serum and 0.2 mg/mL hygromycin B at 37° C. with 5% carbon dioxide.
DAT stably transfected cell passage: the old medium was removed, and the cells were washed once with PBS; 1 mL of TrypLE™ Express solution was then added, and the cells were incubated at 37° C. for about 2 min. When the cells were detached from the bottom of the dish, about 5 mL of complete medium pre-heated at 37° C. was added. The cell suspension was gently pipetted to separate the aggregated cells. The cell suspension was transferred to a sterile centrifuge tube and centrifuged at 1000 rpm for 5 min. In order to maintain the physiological activity of the cells, the experimental cell confluence was controlled at about 80%.
• a) After overnight transfection of NET cells, the cells were digested with trypsin, resuspended with DMEM+10% Dialyzed FBS medium, seeded into a 384-well plate at 20000 cells/well, and incubated overnight. […] After centrifuging, the plate was incubated at 37° C. for 30 min. • e) A detection reagent was prepared using 1×HBSS, and 16 μL of the detection reagent was added to each well. […] Curve fitting and IC50 calculation were performed using GraphPad Prism software nonlinear regression method.

human SERT = human SERT (Homo sapiens, UniProt P31645); test: Inhibitory activity assay against 5-HT transporter (neurotransmitter transporter uptake assay kit); assay type: cell-based; settings: HEK-293 cells overexpressing human SERT; read-out: 5-HTT (IC50)
human SERT, sequence (P31645 whole entry): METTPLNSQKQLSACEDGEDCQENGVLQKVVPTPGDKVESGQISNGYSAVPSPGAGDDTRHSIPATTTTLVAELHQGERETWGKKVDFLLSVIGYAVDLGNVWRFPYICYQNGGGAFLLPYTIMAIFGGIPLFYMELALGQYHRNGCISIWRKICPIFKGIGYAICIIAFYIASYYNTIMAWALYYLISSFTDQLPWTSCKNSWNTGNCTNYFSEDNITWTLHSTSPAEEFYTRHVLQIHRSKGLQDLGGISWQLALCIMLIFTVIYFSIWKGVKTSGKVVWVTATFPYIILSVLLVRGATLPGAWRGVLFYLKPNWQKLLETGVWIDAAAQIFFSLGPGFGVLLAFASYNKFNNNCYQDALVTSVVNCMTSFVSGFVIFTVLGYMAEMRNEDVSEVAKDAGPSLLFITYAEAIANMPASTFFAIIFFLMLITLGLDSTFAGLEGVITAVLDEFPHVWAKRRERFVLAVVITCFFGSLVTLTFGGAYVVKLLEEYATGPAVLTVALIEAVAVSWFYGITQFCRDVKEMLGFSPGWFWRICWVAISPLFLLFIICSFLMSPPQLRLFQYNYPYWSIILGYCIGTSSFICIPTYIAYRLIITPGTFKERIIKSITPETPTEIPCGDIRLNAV
Description: In HEK-293 cells overexpressing human SERT, the transporter inhibitory effect of the test compound on human SERT was assayed using a Neurotransmitter transporter uptake assay kit (Molecular devices).

SMILES	IC50 (human DAT) [µM]	also measured
NC1(c2ccccc2)CCCc2scnc21 (racemic) [rac-A32, 4-phenyl-4,5,6,7-tetrahydrobenzothiazol-4-amine]		half-life at 1 μM [1]: 196 min; CLint scaled at 1 μM [1]: 20.7 mL/min/kg
O=C(O)c1cc2c(s1)CCC(c1ccccc1)(N1CCOCC1)C2 (racemic) [rac-A46, 5-morpholino-5-phenyl-4,5,6,7-tetrahydrobenzothiophen-2-carboxylic acid]		AUC(0-inf) ([2]; male, ICR, po, 10 mg/kg): 3900 ng·h/mL; Cmax ([2]; male, ICR, po, 10 mg/kg): 2710 ng/mL; half-life ([2]; male, ICR, po, 10 mg/kg): 2.6 h
c1ccc(C2(N3CCOCC3)CCc3sccc3C2)cc1 (racemic) [rac-A47, 4-(5-phenyl-4,5,6,7-tetrahydrobenzothiophen-5-yl)morpholine]	1.3	
c1ccc(C2(N3CCCC3)CCc3nnsc3C2)cc1 (racemic) [rac-A54, 6-phenyl-6-(pyrrolidin-1-yl)-4,5,6,7-tetrahydrobenzothiadiazole]	2.8	
Clc1cccc(C2(N3CCCCC3)CCc3nnsc3C2)c1 (racemic) [rac-A58, 6-(3-chlorophenyl)-6-(piperidin-1-yl)-4,5,6,7-tetrahydrobenzothiadiazole]	2.7	
CNC1(c2ccccc2)CCc2[nH]ncc2C1 (racemic) [rac-A69, N-methyl-5-phenyl-4,5,6,7-tetrahydro-1H-indazol-5-amine]		bioavailability ([2]; oral 10 mg/kg vs iv 2.5 mg/kg, read-out: F (%)): 132%; AUC(0-inf) [2]: 602 ng·h/mL; Cmax [2]: 456 ng/mL; half-life [2]: 0.69 h
c1ccc(C2(N3CCCCC3)CCc3ncsc3C2)cc1 (racemic) [rac-A71, 6-phenyl-6-(piperidin-1-yl)-4,5,6,7-tetrahydrobenzothiazole]		half-life at 1 μM [1]: 210 min; CLint scaled at 1 μM [1]: 13.8 mL/min/kg
CNC1(c2cccnc2)CCc2nc(N)sc2C1 (racemic) [rac-A99, N^6-methyl-6-(pyridin-3-yl)-4,5,6,7-tetrahydrobenzothiazole-2,6-diamine]	11	
CCNC1(c2cccc(OC)c2)CCc2nc(N)sc2C1 (racemic) [rac-A226, N^6-ethyl-6-(3-methoxyphenyl)-4,5,6,7-tetrahydrobenzo[d]thiazole-2,6-diamine]	2	IC50 (human SERT): 2 µM
CN(C)C1(c2ccccc2F)CCc2nc(N)sc2C1 (racemic) [rac-A234, 6-(2-fluorophenyl)-N^6,N^6-dimethyl-4,5,6,7-tetrahydrobenzo[d]thiazole-2,6-diamine]	6.3	IC50 (human SERT): 0.3 µM
NC1(c2ccc3ccccc3c2)CCc2sccc2C1 (racemic) [rac-A247, 5-(naphthalen-2-yl)-4,5,6,7-tetrahydrobenzo[b]thiophen-5-amine]	1.5	IC50 (human SERT): 4.5 µM
CNCC1(c2ccccc2)CCc2nc(N)sc2C1 (racemic) [rac-A252, 6-((methylamino)methyl)-6-phenyl-4,5,6,7-tetrahydrobenzo[d]thiazol-2-amine]	9.5	
COc1cccc(C2(N(C)C)CCc3nc(N)sc3C2)c1 (racemic) [rac-A283, 6-(3-methoxyphenyl)-N^6,N^6-dimethyl-4,5,6,7-tetrahydrobenzo[d]thiazole-2,6-diamine]	0.45	
Nc1nc2c(s1)CC(N)(c1ccc3c(c1)OCO3)CC2 (racemic) [rac-A303, 6-(benzo[d][1,3]dioxol-5-yl)-4,5,6,7-tetrahydrobenzo[d]thiazole-2,6-diamine]	8.2	
CN(C)C1(c2cccc(O)c2)CCc2nc(N)sc2C1 (racemic) [rac-A305, 3-(2-amino-6-dimethylamino-4,5,6,7-tetrahydrobenzo[d]thiazol-6-yl)phenol]	0.24	
COc1cc(C2(N)CCc3nc(N)sc3C2)ccn1 (racemic) [rac-A309, 6-(2-methoxypyridin-4-yl)-4,5,6,7-tetrahydrobenzo[d]thiazole-2,6-diamine]	14	
CC(C)Oc1cccc(C2(N)CCc3nc(N)sc3C2)c1 (racemic) [rac-A321, 6-(3-isopropoxyphenyl)-4,5,6,7-tetrahydrobenzo[d]thiazole-2,6-diamine]	5.9	
CNC1(c2ccc(Cl)cc2)CCc2nc(N)sc2C1 (racemic) [rac-A332, 6-(4-chlorophenyl)-N^6-methyl-4,5,6,7-tetrahydrobenzo[d]thiazole-2,6-diamine]	3.2	
CCOc1cccc(C2(NC)CCc3nc(N)sc3C2)c1 (racemic) [rac-A342, 6-(3-ethoxyphenyl)-N^6-methyl-4,5,6,7-tetrahydrobenzo[d]thiazole-2,6-diamine]	0.35	
Nc1nc2c(s1)CC(NCC1CC1)(c1ccccc1F)CC2 (racemic) [rac-A374, N^6-(cyclopropylmethyl)-6-(2-fluorophenyl)-4,5,6,7-tetrahydrobenzo[d]thiazole-2,6-diamine]	3.8	
NC1(c2cccc(O)c2)CCc2nc(NCC(F)(F)F)sc2C1 (racemic) [rac-A396, 3-(6-amino-2-((2,2,2-trifluoroethyl)amino)-4,5,6,7-tetrahydrobenzo[d]thiazol-6-yl)phenol]	18	
Nc1nc2c(s1)C[C@](N)(c1ccccc1)CC2 [S-A1]	6.5	
N[C@@]1(c2ccccc2)CCc2ncsc2C1 [S-A14]	11	
Nc1nc2c(s1)C[C@@](c1ccccc1)(N1CCCC1)CC2 [S-A50]	2.4	
CCOc1cccc([C@]2(N)CCc3nc(N)sc3C2)c1 [S-A228, (S)-6-(3-ethoxyphenyl)-4,5,6,7-tetrahydrobenzo[d]thiazole-2,6-diamine]	1.8	
